Test results reported in ChEMBL document CHEMBL5058643, “Data for DCP probe BI-2081” (2022).

What was measured:
[1] = molecular target: D(2) dopamine receptor (Homo sapiens) (UniProt P14416); assay: D2SH_AGON Eurofins SafetyScreen44 (BI); details: filed as agonist, Compound concentration 10.0 uM
[2] = molecular target: T1, Alpha-1A adrenergic receptor (Homo sapiens) (UniProt P35348); assay: ALPHA1AH_ANTAG Eurofins SafetyScreen44 (BI); details: filed as antagonist, Compound concentration 10.0 uM
T1 sequence (whole entry): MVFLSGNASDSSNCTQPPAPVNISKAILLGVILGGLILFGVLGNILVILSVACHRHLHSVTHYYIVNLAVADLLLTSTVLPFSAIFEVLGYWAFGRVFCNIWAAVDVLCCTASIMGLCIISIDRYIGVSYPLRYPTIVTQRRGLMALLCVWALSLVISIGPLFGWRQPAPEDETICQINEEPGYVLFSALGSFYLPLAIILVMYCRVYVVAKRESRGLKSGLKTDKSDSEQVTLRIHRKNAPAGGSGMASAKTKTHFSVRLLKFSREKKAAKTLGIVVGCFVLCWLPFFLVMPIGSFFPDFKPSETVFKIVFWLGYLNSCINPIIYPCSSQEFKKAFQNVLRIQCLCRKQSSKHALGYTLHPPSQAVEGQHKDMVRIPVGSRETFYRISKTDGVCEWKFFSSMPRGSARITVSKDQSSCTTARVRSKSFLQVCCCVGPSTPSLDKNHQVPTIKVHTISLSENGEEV

[3] = molecular target: MAO-A (amine oxidase [flavin-containing] A) (Rattus norvegicus, UniProt P21396); assay: MAO-A_ANTAG Eurofins SafetyScreen44 (BI); parameters: mode of action antagonist; scale not given: the % may be the effect or the level left; details: compound concentration 10 uM, read-out: % Ctrl
[4] = molecular target: Cannabinoid receptor 1 (Homo sapiens) (UniProt P21554); assay: CB1(HU)_AGON Eurofins SafetyScreen44 (BI); details: filed as agonist; Compound concentration 10.0 uM
[5] = molecular target: Sodium-dependent serotonin transporter (Homo sapiens) (UniProt P31645); assay: SLC6A4/H Eurofins SafetyScreen44 (BI); details: filed as antagonist, Compound concentration 10.0 uM
[6] = molecular target: T2, Alpha-2A adrenergic receptor (Homo sapiens) (UniProt P08913); assay: ALPHA2A/HU Eurofins SafetyScreen44 (BI); details: Compound concentration 10.0 uM
T2 sequence (whole entry): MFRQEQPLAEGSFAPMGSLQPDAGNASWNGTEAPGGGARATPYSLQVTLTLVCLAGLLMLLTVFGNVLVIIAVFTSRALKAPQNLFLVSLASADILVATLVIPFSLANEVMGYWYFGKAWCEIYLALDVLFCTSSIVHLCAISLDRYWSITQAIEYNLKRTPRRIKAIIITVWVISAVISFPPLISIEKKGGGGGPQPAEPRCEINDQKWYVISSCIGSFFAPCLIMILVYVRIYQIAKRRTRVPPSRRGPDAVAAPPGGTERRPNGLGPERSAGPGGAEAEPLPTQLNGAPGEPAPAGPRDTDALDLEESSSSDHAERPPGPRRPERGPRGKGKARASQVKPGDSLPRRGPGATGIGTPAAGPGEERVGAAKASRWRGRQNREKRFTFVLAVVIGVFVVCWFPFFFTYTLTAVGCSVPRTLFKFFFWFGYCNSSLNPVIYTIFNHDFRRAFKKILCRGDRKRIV

[7] = molecular target: T3, 5-hydroxytryptamine receptor 3A (Homo sapiens) (UniProt P46098); assay: 5HT3/H Eurofins SafetyScreen44 (BI); details: Compound concentration 10.0 uM
T3 sequence (whole entry): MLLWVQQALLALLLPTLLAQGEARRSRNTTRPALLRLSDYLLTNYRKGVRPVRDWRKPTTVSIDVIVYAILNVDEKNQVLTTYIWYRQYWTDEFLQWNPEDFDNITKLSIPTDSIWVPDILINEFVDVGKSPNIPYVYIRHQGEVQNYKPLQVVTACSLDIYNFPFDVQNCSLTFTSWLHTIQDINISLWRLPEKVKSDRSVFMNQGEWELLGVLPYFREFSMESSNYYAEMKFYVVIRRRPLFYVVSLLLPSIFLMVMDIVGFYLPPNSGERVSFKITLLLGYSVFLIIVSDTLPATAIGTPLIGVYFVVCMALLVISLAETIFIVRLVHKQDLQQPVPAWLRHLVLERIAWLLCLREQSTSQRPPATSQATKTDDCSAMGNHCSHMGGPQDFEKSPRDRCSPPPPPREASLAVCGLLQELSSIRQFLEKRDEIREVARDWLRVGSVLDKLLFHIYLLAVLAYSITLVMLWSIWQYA

[8] = molecular target: cGMP-inhibited 3',5'-cyclic phosphodiesterase 3A (Homo sapiens) (UniProt Q14432); assay: PDE3A Eurofins SafetyScreen44 (BI); details: Compound concentration 10.0 uM
[9] = molecular target: Muscarinic acetylcholine receptor M3 (Homo sapiens, UniProt P20309); assay: M3/H Eurofins SafetyScreen44 (BI); details: Compound concentration 10.0 uM
[10] = molecular target: T4, Muscarinic acetylcholine receptor M1 (Homo sapiens) (UniProt P11229); assay: M1/HU Eurofins SafetyScreen44 (BI); details: Compound concentration 10.0 uM
T4 sequence (whole entry): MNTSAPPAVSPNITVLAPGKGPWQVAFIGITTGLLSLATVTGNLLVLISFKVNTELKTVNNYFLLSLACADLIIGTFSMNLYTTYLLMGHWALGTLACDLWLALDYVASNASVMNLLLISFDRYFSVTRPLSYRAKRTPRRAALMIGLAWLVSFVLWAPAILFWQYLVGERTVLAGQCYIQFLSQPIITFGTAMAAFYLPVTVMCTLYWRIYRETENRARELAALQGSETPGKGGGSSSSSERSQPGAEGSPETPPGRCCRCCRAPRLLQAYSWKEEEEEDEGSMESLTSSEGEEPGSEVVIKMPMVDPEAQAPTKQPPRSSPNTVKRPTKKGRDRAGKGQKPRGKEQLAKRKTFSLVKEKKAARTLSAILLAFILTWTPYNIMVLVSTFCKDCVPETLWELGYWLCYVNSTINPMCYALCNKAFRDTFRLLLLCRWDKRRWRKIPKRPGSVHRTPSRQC

[11] = molecular target: Platelet-activating factor receptor (Homo sapiens) (UniProt P25105); assay: PAF/H Eurofins SafetyScreen44 (BI); details: Compound concentration 10.0 uM
[12] = molecular target: 5-hydroxytryptamine receptor 2B (Homo sapiens) (UniProt P41595); assay: 5HT2B/HU Eurofins SafetyScreen44 (BI); details: Compound concentration 10.0 uM
[13] = molecular target: D(2) dopamine receptor (Homo sapiens) (UniProt P14416); assay: D2S/HU Eurofins SafetyScreen44 (BI); details: Compound concentration 10.0 uM
[14] = molecular target: D(1A) dopamine receptor (Homo sapiens) (UniProt P21728); assay: D1/HU Eurofins SafetyScreen44 (BI); details: Compound concentration 10.0 uM
[15] = molecular target: Adenosine receptor A1 (Homo sapiens) (UniProt P30542); assay: A1/HU Eurofins SafetyScreen44 (BI); details: Compound concentration 10.0 uM
[16] = molecular target: Glutamate NMDA receptor (Rattus norvegicus) (UniProt P35439+Q00959+Q00960+Q00961+Q62645+Q8VHN2+Q9R1M7); assay: NMDAAGSI/RA Eurofins SafetyScreen44 (BI); details: filed as agonist, Compound concentration 10.0 uM
[17] = molecular target: Protein kinase C alpha type (Mus musculus) (UniProt P20444); assay: PHORBOLE/M Eurofins SafetyScreen44 (BI); details: Compound concentration 10.0 uM
[18] = molecular target: B2 bradykinin receptor (Homo sapiens) (UniProt P30411); assay: B2/H Eurofins SafetyScreen44 (BI); details: filed as antagonist, Compound concentration 10.0 uM
[19] = molecular target: Endothelin receptor type B (Homo sapiens) (UniProt P24530); assay: ETB/HUM Eurofins SafetyScreen44 (BI); details: Compound concentration 10.0 uM

D(2) dopamine receptor (Homo sapiens), sequence (P14416 whole entry): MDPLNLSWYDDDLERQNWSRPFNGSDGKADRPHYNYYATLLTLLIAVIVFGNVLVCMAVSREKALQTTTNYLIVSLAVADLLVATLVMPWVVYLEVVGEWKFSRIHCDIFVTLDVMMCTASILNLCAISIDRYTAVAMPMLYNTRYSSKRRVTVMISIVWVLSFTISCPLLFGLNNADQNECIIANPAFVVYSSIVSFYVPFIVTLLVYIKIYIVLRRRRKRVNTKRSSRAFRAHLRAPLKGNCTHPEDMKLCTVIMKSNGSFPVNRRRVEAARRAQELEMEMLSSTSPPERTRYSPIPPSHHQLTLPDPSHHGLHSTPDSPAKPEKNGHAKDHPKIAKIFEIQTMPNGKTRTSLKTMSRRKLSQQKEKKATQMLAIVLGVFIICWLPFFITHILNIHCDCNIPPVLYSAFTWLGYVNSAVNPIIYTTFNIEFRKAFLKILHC
Cannabinoid receptor 1 (Homo sapiens), sequence (P21554 whole entry): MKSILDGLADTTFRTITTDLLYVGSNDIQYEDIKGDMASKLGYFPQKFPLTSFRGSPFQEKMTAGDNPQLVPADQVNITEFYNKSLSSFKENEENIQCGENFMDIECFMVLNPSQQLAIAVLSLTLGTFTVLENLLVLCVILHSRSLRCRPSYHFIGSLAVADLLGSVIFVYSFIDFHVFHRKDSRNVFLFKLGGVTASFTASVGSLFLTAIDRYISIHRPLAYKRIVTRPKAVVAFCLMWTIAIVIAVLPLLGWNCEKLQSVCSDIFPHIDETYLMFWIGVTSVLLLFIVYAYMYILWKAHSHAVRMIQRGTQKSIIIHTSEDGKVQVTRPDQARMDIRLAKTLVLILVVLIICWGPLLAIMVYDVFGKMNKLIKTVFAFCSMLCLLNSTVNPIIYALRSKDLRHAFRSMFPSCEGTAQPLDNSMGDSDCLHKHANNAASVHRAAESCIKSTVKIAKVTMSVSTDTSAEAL
B2 bradykinin receptor (Homo sapiens), sequence (P30411 whole entry): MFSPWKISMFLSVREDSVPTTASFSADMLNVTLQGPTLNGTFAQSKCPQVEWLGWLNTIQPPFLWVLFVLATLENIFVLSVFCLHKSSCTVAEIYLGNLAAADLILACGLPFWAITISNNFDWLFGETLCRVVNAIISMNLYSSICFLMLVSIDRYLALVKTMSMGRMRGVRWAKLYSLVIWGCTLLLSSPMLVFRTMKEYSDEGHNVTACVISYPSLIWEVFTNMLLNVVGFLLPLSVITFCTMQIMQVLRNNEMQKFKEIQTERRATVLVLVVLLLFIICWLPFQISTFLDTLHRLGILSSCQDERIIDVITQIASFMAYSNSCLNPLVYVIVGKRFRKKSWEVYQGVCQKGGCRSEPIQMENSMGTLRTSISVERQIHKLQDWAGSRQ
Adenosine receptor A1 (Homo sapiens), sequence (P30542 whole entry): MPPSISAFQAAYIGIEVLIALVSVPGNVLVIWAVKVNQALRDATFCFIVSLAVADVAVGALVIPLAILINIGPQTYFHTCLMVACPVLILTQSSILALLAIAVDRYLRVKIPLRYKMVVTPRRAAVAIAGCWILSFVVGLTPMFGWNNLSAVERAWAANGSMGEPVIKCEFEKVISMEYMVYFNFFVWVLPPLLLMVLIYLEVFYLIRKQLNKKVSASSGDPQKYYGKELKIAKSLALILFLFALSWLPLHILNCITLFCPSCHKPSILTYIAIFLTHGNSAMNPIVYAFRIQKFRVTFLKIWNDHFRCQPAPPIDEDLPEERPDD
cGMP-inhibited 3',5'-cyclic phosphodiesterase 3A (Homo sapiens), sequence (Q14432 whole entry): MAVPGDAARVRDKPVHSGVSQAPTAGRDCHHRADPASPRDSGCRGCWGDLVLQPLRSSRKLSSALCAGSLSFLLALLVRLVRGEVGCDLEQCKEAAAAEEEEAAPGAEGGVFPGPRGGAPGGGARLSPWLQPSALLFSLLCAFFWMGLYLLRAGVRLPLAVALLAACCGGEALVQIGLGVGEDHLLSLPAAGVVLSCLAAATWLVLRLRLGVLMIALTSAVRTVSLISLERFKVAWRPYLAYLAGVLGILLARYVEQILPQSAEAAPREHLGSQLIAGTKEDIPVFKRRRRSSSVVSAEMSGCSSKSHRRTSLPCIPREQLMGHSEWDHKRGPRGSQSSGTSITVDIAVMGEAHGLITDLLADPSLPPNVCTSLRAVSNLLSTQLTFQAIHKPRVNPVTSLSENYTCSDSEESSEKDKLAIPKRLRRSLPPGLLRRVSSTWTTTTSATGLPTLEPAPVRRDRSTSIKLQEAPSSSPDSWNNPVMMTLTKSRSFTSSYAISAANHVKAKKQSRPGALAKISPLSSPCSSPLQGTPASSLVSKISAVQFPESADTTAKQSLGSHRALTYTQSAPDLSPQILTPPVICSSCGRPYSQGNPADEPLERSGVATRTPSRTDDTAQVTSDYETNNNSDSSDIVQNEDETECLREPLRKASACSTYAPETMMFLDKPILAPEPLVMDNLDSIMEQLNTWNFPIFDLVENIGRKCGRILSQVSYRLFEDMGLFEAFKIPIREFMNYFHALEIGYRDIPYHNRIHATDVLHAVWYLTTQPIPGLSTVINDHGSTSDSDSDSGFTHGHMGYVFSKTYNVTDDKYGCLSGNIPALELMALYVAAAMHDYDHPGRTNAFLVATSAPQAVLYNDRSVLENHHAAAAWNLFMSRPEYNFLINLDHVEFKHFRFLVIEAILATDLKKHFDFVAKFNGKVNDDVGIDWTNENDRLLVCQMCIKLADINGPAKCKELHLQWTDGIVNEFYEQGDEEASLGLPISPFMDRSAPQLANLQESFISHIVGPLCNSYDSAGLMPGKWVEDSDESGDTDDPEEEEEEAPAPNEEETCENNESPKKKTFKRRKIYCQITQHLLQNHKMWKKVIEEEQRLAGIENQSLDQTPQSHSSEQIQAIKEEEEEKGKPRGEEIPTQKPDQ
Muscarinic acetylcholine receptor M3, sequence (P20309 whole entry, looked up): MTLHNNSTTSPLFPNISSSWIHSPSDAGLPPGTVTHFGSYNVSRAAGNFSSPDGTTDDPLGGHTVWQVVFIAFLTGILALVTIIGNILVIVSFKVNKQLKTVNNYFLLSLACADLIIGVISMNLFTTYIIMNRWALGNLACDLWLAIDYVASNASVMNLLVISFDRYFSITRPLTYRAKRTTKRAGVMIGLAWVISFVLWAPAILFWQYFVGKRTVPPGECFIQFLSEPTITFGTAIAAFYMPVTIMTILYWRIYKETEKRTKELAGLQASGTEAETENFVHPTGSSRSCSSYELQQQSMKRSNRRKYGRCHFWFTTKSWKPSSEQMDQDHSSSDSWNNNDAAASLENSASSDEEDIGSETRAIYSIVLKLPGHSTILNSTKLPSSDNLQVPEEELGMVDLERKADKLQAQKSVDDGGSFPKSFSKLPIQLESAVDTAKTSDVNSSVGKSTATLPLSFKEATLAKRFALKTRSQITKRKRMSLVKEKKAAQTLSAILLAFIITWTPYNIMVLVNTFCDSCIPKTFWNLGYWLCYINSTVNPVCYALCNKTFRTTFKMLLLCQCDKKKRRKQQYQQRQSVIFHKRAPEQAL
Sodium-dependent serotonin transporter (Homo sapiens), sequence (P31645 whole entry, looked up): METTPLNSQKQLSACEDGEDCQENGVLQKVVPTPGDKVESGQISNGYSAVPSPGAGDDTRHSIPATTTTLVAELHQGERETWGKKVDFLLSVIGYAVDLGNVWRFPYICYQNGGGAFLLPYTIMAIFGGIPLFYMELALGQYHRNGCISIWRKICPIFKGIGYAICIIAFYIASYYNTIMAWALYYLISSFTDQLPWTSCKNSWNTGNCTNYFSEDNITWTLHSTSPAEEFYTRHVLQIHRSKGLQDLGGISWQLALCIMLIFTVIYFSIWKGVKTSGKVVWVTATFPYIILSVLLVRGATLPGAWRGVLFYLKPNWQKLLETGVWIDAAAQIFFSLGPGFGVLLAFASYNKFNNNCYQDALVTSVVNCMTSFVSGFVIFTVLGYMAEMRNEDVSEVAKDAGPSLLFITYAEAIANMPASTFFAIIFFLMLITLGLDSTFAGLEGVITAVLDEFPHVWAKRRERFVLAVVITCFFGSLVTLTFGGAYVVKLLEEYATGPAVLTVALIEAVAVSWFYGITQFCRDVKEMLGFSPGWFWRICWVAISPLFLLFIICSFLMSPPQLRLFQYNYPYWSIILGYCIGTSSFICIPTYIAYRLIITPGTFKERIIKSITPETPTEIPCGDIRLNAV
Platelet-activating factor receptor (Homo sapiens), sequence (P25105 whole entry): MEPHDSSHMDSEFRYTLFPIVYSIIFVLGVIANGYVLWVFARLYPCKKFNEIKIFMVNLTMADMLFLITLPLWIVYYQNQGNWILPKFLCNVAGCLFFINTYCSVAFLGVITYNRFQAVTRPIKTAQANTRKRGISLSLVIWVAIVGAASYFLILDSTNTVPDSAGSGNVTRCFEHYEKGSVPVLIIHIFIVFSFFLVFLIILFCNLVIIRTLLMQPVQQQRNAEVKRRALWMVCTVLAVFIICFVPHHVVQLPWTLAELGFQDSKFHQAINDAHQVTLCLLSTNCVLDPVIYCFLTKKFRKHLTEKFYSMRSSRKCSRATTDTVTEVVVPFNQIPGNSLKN

Compound	residual activity [1] [%]	residual activity [2] [%]	activity at 10 µM [3]	residual activity [4] [%]	residual activity [5] [%]	residual activity [6] [%]	residual activity [7] [%]	residual activity [8] [%]	residual activity [9] [%]	residual activity [10] [%]	residual activity [11] [%]	residual activity [12] [%]	residual activity [13] [%]	residual activity [14] [%]	residual activity [15] [%]	residual activity [16] [%]	residual activity [17] [%]	residual activity [18] [%]	residual activity [19] [%]
COCCCS(=O)(=O)c1cc(C)c(-c2ccc(F)c3c2CC[C@H]3Oc2ccc3c(c2)OC[C@H]3CC(=O)O)c(C)c1	88	95	94% (not active)	102	109	94	106	100	95	–	–	–	–	–	–	–	–	–	–
Cc1cc(OCCC(C)(C)O)cc(C)c1-c1ccc(F)c2c1CC[C@H]2Oc1ccc2c(c1)OC[C@H]2CC(=O)O	–	–	–	–	–	–	–	–	–	83	97	82	100	81	68	89	84	103	63
